# Source: article PMC4579270, “Identification and Characterization of an Irreversible Inhibitor of CDK2” (Chemistry & Biology, 2015)
# Read-outs that look alike come from different tables or passages of the source.
# Experiments:
# Test in all cases: Dundee kinase screen re-test (standard format and 4 hour pre-incubation)
# Format in all cases: biochemical
# Aurora A = biological target: T1, Aurora A (Homo sapiens, UniProt O14965)
# T1 sequence (O14965 1-403): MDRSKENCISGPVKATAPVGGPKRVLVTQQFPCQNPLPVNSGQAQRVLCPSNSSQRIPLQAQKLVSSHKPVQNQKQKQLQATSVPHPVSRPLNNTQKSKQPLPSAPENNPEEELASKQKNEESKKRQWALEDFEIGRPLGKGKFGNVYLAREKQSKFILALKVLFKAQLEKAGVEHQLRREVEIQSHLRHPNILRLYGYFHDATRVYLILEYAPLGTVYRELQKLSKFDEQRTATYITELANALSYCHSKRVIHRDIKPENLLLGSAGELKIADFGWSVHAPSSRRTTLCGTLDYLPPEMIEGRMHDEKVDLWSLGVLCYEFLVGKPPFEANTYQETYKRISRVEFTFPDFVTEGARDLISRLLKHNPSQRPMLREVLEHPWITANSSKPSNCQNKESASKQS
# Method: (§1) Prior to determining its cellular activity, we carried out a screen to assess its selectivity against a panel of 131 protein kinases under conditions that would not distinguish between a reversible or irreversible mode of action. […] These 13 kinases and 29 additional kinases, selected for their known sensitivity to other inhibitors within the purine series, were then tested in a modified screening format in which the assay was repeated following a 4-hr pre-incubation (Table S3B). […] However, conformational flexibility around the active site may promote such an interaction with a residue from another part of the structure ([Martin et al., 2012]).
# (§2) Table S3, Related to Figure 4. NCL-0006300 protein kinase selectivity. (A) NU6300 was tested at a single concentration of 1µM against 131 protein kinases present in a Dundee protein kinase screen (Bain et al., 2007). Values given are % activity remaining and are the average of duplicate measurements: 0-25% (red), 26-50% (yellow), 51-80% (black) and above 81% (green). The kinase domain sequences (as defined by UniProt) of […]
# (§3) have a lysine residue at a position close to CDK2 Lys88 or Lys89. However, in the structure of tyrosine-protein kinase BTK (PDB ID: 3GEN) the residue equivalent to CDK2 Asp86 is Cys481 and therefore there is the potential for a covalent adduct to be formed through this side chain. Ephrin type-B receptor 3 (UniProt entry P54753) also encodes a cysteine residue (Cys717) that by sequence alignment would be predicted to be close to the CDK2 lysine pair. (B) Selected kinases were re-tested in the Dundee kinase screen against NU6300 at a single concentration of 0.5 µM both in the standard assay format and following a 4 hour pre-incubation in the presence of NU6300. Kinases which have very low activity after the 4 hour incubation so that results might not be wholly reliable are boxed in salmon. Kinases where the activity after a 4 hour pre-incubation is < 50% that in the standard assay format are highlighted in red.
# MST2 = biological target: T2, MST2 (Homo sapiens, UniProt Q13188); conditions: for remaining activity at 0.5 µM: MST2, 0.5µM
# T2 sequence (Q13188 1-491): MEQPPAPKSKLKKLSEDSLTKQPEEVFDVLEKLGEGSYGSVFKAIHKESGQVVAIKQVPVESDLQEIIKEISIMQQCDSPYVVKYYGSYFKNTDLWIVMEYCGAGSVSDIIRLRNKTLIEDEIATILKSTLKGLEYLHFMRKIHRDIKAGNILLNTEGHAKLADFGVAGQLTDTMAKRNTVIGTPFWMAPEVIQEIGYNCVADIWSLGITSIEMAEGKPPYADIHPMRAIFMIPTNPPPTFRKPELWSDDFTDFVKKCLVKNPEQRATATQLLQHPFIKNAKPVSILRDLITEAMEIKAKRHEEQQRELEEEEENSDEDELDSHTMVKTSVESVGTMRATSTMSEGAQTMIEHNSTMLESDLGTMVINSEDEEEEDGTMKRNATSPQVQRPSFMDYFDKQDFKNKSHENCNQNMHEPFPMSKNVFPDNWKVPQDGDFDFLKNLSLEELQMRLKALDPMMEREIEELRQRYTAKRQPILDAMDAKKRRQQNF
# Method: as §1, §2, §3
# Lck = Lck (Homo sapiens, UniProt P06239)
# Method: as §1, §2, §3
# NUAK1 = biological target: T3, NUAK1 (Homo sapiens, UniProt O60285); conditions: NUAK1, 0.5µM
# T3 sequence (O60285 1-661): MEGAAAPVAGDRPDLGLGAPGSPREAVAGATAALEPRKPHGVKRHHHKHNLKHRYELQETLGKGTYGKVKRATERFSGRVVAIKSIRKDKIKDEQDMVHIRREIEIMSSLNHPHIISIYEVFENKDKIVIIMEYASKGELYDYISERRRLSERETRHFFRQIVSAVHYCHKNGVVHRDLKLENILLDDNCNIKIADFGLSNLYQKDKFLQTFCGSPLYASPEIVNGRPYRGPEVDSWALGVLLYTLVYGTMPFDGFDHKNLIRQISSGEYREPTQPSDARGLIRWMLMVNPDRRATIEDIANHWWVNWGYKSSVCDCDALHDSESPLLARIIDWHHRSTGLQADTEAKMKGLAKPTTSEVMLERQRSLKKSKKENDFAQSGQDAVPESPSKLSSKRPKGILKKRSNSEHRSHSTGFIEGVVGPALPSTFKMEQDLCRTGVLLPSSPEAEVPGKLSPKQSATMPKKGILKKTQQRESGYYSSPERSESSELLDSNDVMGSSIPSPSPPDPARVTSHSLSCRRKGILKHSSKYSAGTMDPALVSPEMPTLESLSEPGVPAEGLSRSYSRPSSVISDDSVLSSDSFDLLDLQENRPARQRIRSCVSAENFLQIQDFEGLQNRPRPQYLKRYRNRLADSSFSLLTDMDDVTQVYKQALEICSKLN
# Method: as §1, §2, §3
# VEG-FR1 = VEG-FR1 (Homo sapiens, UniProt P17948); conditions: VEG-FR1, 0.5µM
# Method: as §1, §2, §3
# CHK2 = CHK2 (Homo sapiens, UniProt O96017); conditions: CHK2, 0.5µM
# Method: as §1, §2, §3
# [1] = 4hr RT preincubation, read-out: %Remaining activity at 0.5µM NU6300 - 4hr RT preincubation
# [2] = usual format, read-out: %Remaining activity at 0.5µM NU6300 - Usual assay format
# Lck, sequence (P06239 whole entry): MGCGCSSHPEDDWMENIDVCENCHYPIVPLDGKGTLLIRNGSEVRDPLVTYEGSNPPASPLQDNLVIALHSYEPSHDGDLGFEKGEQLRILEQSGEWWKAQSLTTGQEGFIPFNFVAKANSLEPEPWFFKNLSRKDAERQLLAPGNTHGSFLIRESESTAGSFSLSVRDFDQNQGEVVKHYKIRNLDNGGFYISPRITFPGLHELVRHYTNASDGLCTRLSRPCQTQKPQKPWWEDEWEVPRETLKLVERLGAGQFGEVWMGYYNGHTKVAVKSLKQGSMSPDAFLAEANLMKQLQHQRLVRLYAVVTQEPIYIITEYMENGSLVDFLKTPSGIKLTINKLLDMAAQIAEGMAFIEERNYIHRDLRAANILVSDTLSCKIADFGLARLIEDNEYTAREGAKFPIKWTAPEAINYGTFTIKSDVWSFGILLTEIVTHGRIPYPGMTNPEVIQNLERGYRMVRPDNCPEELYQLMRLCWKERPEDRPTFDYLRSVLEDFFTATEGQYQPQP
# CHK2, sequence (O96017 whole entry): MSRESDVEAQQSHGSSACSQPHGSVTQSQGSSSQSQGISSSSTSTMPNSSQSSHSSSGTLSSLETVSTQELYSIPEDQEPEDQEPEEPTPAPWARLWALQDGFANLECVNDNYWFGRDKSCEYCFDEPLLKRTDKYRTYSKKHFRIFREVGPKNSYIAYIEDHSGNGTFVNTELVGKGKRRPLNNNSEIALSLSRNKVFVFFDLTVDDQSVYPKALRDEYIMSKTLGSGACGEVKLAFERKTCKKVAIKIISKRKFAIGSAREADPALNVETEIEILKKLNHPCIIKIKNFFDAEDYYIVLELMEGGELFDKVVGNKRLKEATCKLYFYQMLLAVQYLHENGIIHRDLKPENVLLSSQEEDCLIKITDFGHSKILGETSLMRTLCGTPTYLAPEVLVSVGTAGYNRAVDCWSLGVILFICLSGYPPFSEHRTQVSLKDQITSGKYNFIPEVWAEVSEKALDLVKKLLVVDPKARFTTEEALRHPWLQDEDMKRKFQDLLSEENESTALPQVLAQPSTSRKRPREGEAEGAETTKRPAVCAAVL
# VEG-FR1, sequence (P17948 27-1338): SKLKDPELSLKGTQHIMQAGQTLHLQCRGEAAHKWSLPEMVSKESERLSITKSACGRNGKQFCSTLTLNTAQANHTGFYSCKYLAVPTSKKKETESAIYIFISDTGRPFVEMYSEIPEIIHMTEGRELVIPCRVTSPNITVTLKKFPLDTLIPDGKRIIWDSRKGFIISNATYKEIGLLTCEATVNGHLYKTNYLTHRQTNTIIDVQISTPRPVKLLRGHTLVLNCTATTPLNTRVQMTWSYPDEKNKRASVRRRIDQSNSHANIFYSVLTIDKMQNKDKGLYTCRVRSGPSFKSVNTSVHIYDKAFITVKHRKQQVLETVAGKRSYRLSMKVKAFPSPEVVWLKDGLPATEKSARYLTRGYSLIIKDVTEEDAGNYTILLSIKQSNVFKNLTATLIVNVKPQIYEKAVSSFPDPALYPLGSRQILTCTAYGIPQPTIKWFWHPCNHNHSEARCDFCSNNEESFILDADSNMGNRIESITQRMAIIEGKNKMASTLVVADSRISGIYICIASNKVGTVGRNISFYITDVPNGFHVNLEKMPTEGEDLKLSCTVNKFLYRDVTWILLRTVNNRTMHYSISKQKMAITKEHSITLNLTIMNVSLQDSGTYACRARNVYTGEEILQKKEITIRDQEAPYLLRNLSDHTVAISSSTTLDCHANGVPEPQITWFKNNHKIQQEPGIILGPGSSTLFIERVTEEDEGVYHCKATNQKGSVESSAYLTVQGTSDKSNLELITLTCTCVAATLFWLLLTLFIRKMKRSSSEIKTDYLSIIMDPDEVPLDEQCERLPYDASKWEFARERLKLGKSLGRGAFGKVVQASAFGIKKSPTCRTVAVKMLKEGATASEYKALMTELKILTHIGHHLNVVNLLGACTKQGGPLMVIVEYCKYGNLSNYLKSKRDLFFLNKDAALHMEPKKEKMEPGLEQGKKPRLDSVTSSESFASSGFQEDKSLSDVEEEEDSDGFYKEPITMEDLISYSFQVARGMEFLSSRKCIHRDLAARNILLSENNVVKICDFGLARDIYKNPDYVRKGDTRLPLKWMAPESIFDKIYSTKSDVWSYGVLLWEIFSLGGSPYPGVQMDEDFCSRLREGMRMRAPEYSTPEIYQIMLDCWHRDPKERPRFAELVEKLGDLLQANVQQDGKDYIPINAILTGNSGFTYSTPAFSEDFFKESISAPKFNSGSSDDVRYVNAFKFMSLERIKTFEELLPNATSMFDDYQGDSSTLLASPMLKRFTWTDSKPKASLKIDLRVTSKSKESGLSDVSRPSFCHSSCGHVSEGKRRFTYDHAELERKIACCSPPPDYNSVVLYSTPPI
smiles,measurement,setting,value
"C=CS(=O)(=O)c1ccc(Nc2nc(OCC3CCCCC3)c3nc[nH]c3n2)cc1 [NU6300, 6-(cyclohexylmethoxy)-N-(4-(vinylsulfonyl)phenyl)-9H-purin-2-amine]",remaining activity at 0.5 µM,Aurora A; [1],6%
same,remaining activity at 0.5 µM,Aurora A; [2],26%
same,additional loss of activity after pre-incubation,"Aurora A; 4-hr pre-incubation vs usual format, 0.5 µM",> 50%
same,remaining activity at 0.5 µM,MST2; [1],11%
same,remaining activity at 0.5 µM,MST2; [2],38%
same,additional loss of activity after pre-incubation,"MST2; Mst2, 4-hr pre-incubation vs usual format, 0.5 µM",> 50%
same,remaining activity at 0.5 µM,Lck; [1],60%
same,remaining activity at 0.5 µM,Lck; [2],67%
same,remaining activity at 0.5 µM,NUAK1; [1],18%
same,remaining activity at 0.5 µM,NUAK1; [2],12%
same,remaining activity at 0.5 µM,VEG-FR1; [1],51%
same,remaining activity at 0.5 µM,VEG-FR1; [2],43%
same,remaining activity at 0.5 µM,CHK2; [1],120%
same,remaining activity at 0.5 µM,CHK2; [2],55%
